Literature values as cited in patent US20060252738A1, “Method for preparing and using water-based steroid pheromone compositions” (Phero Tech Inc., priority 2005, published 2006).

What was measured:
[1] = system: sows that have reached oestrus; settings: for function in place of boar saliva: pressurized aerosol sprays in organic solvents, sows that have reached oestrus, Melrose et al. 1971
sows = settings: pigs; Reed et al. (1974)

Row | SMILES | function in place of boar saliva [1] | bioactivity as diagnostic tool relative to androstenone (sows) | effective dose ([1]; established by Melrose et al. (1972))
1 | C[C@]12CC[C@@H](O)C[C@@H]1CC[C@@H]1[C@@H]2CC[C@]2(C)C=CC[C@@H]12 [androstenol, 3α-hydroxy-5a-androst-16-ene] | inducing an immobile mating stance |  | 
2 | C[C@]12CCC(=O)C[C@H]1CC[C@@H]1[C@@H]2CC[C@]2(C)C=CC[C@@H]12 [5β-androst-16-en-3-one] |  | comparable | 
3 | C[C@]12CC[C@H](O)C[C@@H]1CC[C@@H]1[C@@H]2CC[C@]2(C)C=CC[C@@H]12 [3β-hydroxy-5α-androst-16-ene] |  | less effective | 
4 | C[C@]12CCC(=O)C[C@@H]1CC[C@@H]1[C@@H]2CC[C@]2(C)C=CC[C@@H]12 [androstenone, 5α-androst-16-en-3-one] | inducing an immobile mating stance |  | 2 to 20 µg
5 | C[C@@]12C=CC[C@H]1[C@@H]1CCC3=CC(=O)CC[C@]3(C)[C@H]1CC2 [andrsost-4,16-dien-3-one] |  | comparable | 
6 | C[C@@]12CCC[C@H]1[C@@H]1CC[C@H]3CC(=O)CC[C@]3(C)[C@H]1CC2 [5α-androstan-3-one] |  | less effective | 
